Measurements from patent US20160060234A1, “CYSTEINE DERIVATIVE” (AJINOMOTO CO., INC., priority 2010, published 2016).
Counter-ions that a name gives are not always drawn. Blank lines part the entries; values can stand above or below the compound they belong to.

Tests used:
[1] = Time-course stability test at 70° C. of cis form-trans form mixture (Experimental Example 2); format: physicochemical; settings: 5 days; for residual ratio (%) at pH 4: 25 mM phosphate buffer pH 4, 70° C.; for residual ratio (%) at pH 4 / residual ratio (%) at pH 5 / residual ratio (%) at pH 6 / residual ratio (%) at pH 7: HPLC area vs day 0; for preservation stability (in words, from Table 1): 25 mM phosphate buffer pH 4-7, 70° C.; for residual ratio (%) at pH 5: 25 mM phosphate buffer pH 5, 70° C.; for residual ratio (%) at pH 6: 25 mM phosphate buffer pH 6, 70° C.; for residual ratio (%) at pH 7: 25 mM phosphate buffer pH 7, 70° C.
Experimental: A time-course stability test was performed using about 1:1 mixture (20 mg/20 ml) of cis form-trans form of N-Ac-CP2Et obtained in Synthetic Example 7 in a 25 mM phosphate buffer at pH 4, 5, 6, and 7 and 70° C. in the same manner as in Examples Experimental Example 1. The test was performed for 5 days. As an index of a time-course stability test at 70° C., the area value of a target substance 5 days after start of the stability test relative to the area value of the target substance on day 0 after start of the stability test was calculated in % on an HPLC chart and used as a residual ratio.
Detector: ultraviolet absorption spectrophotometer (measurement wavelength; 210 nm) Column: Inertsil ODS-3 (High Pressure type, GL Sciences) (particle size 3 μm, inner diameter 4.6 mm, length 250 mm) eluent: A: 0.05M KH2PO4 (adjusted to pH2 with 85% H3PO4), B: MeOH gradient conditions: 0-5 minute: A=100, −25 minute: A:B=50:50, −35 minute: A:B=50:50, −40 minute: A=100, −45 minute: A=100 flow rate: 0.8 mL/minute column temperature: 30° C. sample concentration: 25-50 mg/dL injection volume: 20 μL retention time (minute): N-Ac-CP2Et (cis form): 31.9, N-Ac-CP2Et (trans form): 33.9

B16 melanoma = assay: Eumelanin production suppression test; format: cell-based; settings: Mus musculus, 72 h, 3 days culture, absorbance of medium at 450 nm, control = 100%, read-out: 50% melanin production suppressing concentration
Experimental: B16 melanoma was cultured in DMEM (Dulbecco's Modified Eagle Medium) (high glucose, containing 10% serum). Confluent cells were detached with trypsin, and plated on a 96 well plate. After cell adhesion to the plate the next day, the medium was changed to DMEM added with each evaluation sample (control (no sample addition), cysteine derivatives of each Synthetic Example) at a predetermined evaluation concentration (diluted from 10 mM according to sample), and the cells were cultured for 3 days. The 96 well plate was shaken for 5 minutes in a plateshaker, and the absorbance of the medium at 450 nm was measured by a microplatereader. The absorbance after 3 days from the addition of a predetermined concentration of each sample was shown in relative percentage to the measured value (absorbance) of the control (no sample addition) as 100%, and the concentration necessary for suppressing eumelanin production in each sample by 50% was calculated as 50% melanin production suppressing concentration relative to the amount of eumelanin in the control as 100%.
The microplatereader used in this eumelanin production suppression test was Benchmark microplatereader, manufactured by BIORAD.

[2] = Time-course stability test at 70° C. (Experimental Example 1); format: physicochemical; settings: 25 mM phosphate buffer, pH 4, 5, 6 and 7, 70° C., 4 days, HPLC
Experimental: A time-course stability test was performed using N-Ac-CP2Et obtained in Synthetic Example 1 and N-Ac-CP obtained in Synthetic Example 13 in a 25 mM phosphate buffer at pH 4, 5, 6, and 7 and 70° C. The test was performed for 4 days. As comparison targets, CP obtained in Reference Example 1, and CP2Et obtained in Reference Example 2 were used. For the time-course stability test, HPLC; (pump) HITACHI L-7100, (Autosampler) HITACHI L-2200, and (detector) HITACHI L-4000 were used.
As an index of a time-course stability test at 70° C., the area value of a target substance after time course changes relative to the area value of the target substance on day 0 after start of the stability test was calculated in % on an HPLC chart and used as a residual ratio.
detector: ultraviolet absorption spectrophotometer (measurement wavelength; 210 nm) column: Inertsil ODS (GL Sciences) (particle size 3 μm, inner diameter 4.6 mm, length 250 mm) eluent: 4 mL/L aqueous phosphoric acid solution:methanol=3:1 (v/v) flow rate: 0.8 mL/minute column temperature: 50° C. sample concentration: 100 mg/dL injection volume: 20 μL retention time (minute): CP: 4.6, 4.8 (diastereomer mixture), N-Ac-CP: 8.0 […]

melting point: 138 to 141 °C
Compound: CCOC(=O)C1(C)SCC(C(=O)O)N1C(C)=O (centres unmarked) (as salt: salt) [Synthetic Example 1, N-acetyl-2-methylthiazolidine-2,4-dicarboxylic acid 2-ethyl ester]

residual ratio (%) at pH 4 [1]: 69.9%
preservation stability (in words, from Table 1) [1]: good preservation stability
residual ratio (%) at pH 5 [1]: 93.5%
residual ratio (%) at pH 6 [1]: 96.9%
residual ratio (%) at pH 7 [1]: >99.9%
Compound: CCOC(=O)C1(C)SCC(C(=O)O)N1C(C)=O (stereo not drawn) [N-Ac-CP2Et (cis form), N-acetyl-2-methylthiazolidine-2,4-dicarboxylic acid 2-ethyl ester]

IC50 (B16 melanoma): 1.42 mM
Compound: CCOC(=O)C1(C)SCC(C(=O)OC(C)C)N1C(C)=O (centres unmarked) [Synthetic Example 20, N-acetyl-2-methylthiazolidine-2,4-dicarboxylic acid 2-ethyl 4-isopropyl ester]

More lines, now with the values behind:

Compound: CCOC(=O)C1(C)SCC(C(=O)O)N1C(C)=O (stereo not drawn) [N-Ac-CP2Et (trans form), N-acetyl-2-methylthiazolidine-2,4-dicarboxylic acid 2-ethyl ester]
residual ratio (%) at pH 4 [1]: 95.8%
preservation stability (in words, from Table 1) [1]: good preservation stability
residual ratio (%) at pH 5 [1]: 99.8%
residual ratio (%) at pH 6 [1]: >99.9%
residual ratio (%) at pH 7 [1]: >99.9%

Compound: CCOC(=O)C1(C)SCC(C(=O)O)N1C(C)=O (centres unmarked) [Synthetic Example 1, N-acetyl-2-methylthiazolidine-2,4-dicarboxylic acid 2-ethyl ester]
IC50 (B16 melanoma): 4.54 mM
preservation stability (residual ratio, FIGS. 1 to 4) [2]: preservation stability better than CP and CP2Et

Compound: CC(=O)N1C(C(=O)O)CSC1(C)C(=O)O (centres unmarked) [Synthetic Example 13, N-acetyl-2-methylthiazolidine-2,4-dicarboxylic acid]
IC50 (B16 melanoma): 5.47 mM
preservation stability (residual ratio, FIGS. 1 to 4) [2]: preservation stability better than CP and CP2Et

Compound: CCOC(=O)C1CSC(C)(C(=O)OCC)N1C(C)=O (centres unmarked) [Synthetic Example 19, N-acetyl-2-methylthiazolidine-2,4-dicarboxylic acid 2,4-diethyl ester]
IC50 (B16 melanoma): 2.61 mM
